Assay results taken from PubChem BioAssay AID2060883 (Molecular Pharmacology Branch, DTP, NCI, 2025).
Values joined by “and” are separate entries in the source; they are usually repeats but may differ in a detail not shown here. Equal entries are not always repeated.

System: 843782-103-R-J1-PDC complex spheroid viability
Assay: Anticancer human tumor 843782-103-R-J1-PDC patient-derived lung adenocarcinoma cell line growth inhibition [RAS]
Details: for viability, T/C: stronger effect = lower value
Method in brief: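 Tumour cells grown as complex spheroids with HUVEC endothelial cells and mesenchymal stem cells, treated with RAS pathway inhibitor combinations. Each agent spans half-log steps from near clinical Cmax, or 10 microM where Cmax is unknown.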

[1] = curve of first compound, second compound 0.0316 µM
[2] = curve of first compound, second compound 0.1 µM
[3] = curve of first compound, second compound 0.316 µM
[4] = curve of first compound, second compound 1 µM
[5] = second compound 0.0316 µM, first compound 0.0316 µM
[6] = second compound 0.0316 µM, first compound 0.1 µM
[7] = second compound 0.0316 µM, first compound 0.316 µM
[8] = second compound 0.0316 µM, first compound 1 µM
[9] = second compound 0.0316 µM, first compound 3.16 µM
[10] = second compound 0.0316 µM, first compound 10 µM
[11] = second compound 0.1 µM, first compound 0.0316 µM
[12] = second compound 0.1 µM, first compound 0.1 µM
[13] = second compound 0.1 µM, first compound 0.316 µM
[14] = second compound 0.1 µM, first compound 1 µM
[15] = second compound 0.1 µM, first compound 3.16 µM
[16] = second compound 0.1 µM, first compound 10 µM
[17] = second compound 0.316 µM, first compound 0.0316 µM
[18] = second compound 0.316 µM, first compound 0.1 µM
[19] = second compound 0.316 µM, first compound 0.316 µM
[20] = second compound 0.316 µM, first compound 1 µM
[21] = second compound 0.316 µM, first compound 3.16 µM
[22] = second compound 0.316 µM, first compound 10 µM
[23] = second compound 1 µM, first compound 0.0316 µM
[24] = second compound 1 µM, first compound 0.1 µM
[25] = second compound 1 µM, first compound 0.316 µM
[26] = second compound 1 µM, first compound 1 µM
[27] = second compound 1 µM, first compound 3.16 µM
[28] = second compound 1 µM, first compound 10 µM
[29] = curve of first compound, second compound 3.16 µM
[30] = curve of first compound, second compound 10 µM
[31] = second compound 3.16 µM, first compound 0.0316 µM
[32] = second compound 3.16 µM, first compound 0.1 µM
[33] = second compound 3.16 µM, first compound 0.316 µM
[34] = second compound 3.16 µM, first compound 1 µM
[35] = second compound 10 µM, first compound 0.0316 µM
[36] = second compound 10 µM, first compound 0.1 µM
[37] = second compound 10 µM, first compound 0.316 µM
[38] = second compound 10 µM, first compound 1 µM
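Further: viability read after seven days of compound exposure.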

In the case of `Cc1nc(N2CCC3(CC2)COC(C)C3N)c(CO)nc1Sc1ccnc(N)c1Cl` (configuration not stated) + C=CC(=O)N1CCN(c2nc(OCC3CCCN3C)nc3c(F)c(-c4nc(N)cc(C)c4C(F)(F)F)c(Cl)cc23)C(C)C1, the IC50 (curve of first compound, second compound 0.00316 µM) is reported as 211 nM, the IC50 (curve of first compound, second compound 0.01 µM) is reported as 385 nM and the IC50 [1] is reported as 200 nM. For the same compound, the IC50 [2] was 311 nM, the IC50 [3] was 277 nM and the IC50 [4] was 313 nM. It also gave a viability, T/C (second compound 0.00316 µM, first compound 0.0316 µM) of 88.9%, a viability, T/C (second compound 0.00316 µM, first compound 0.1 µM) of 58.6% and a viability, T/C (second compound 0.00316 µM, first compound 0.316 µM) of 47.4%. The viability, T/C (second compound 0.00316 µM, first compound 1 µM) was 32.8%, the viability, T/C (second compound 0.00316 µM, first compound 3.16 µM) was 32.5% and the viability, T/C (second compound 0.00316 µM, first compound 10 µM) was 27.2%. It also gave a viability, T/C (second compound 0.01 µM, first compound 0.0316 µM) of 79.5%, a viability, T/C (second compound 0.01 µM, first compound 0.1 µM) of 66.8% and a viability, T/C (second compound 0.01 µM, first compound 0.316 µM) of 51.4%. For the same compound, the viability, T/C (second compound 0.01 µM, first compound 1 µM) was 37.4%, the viability, T/C (second compound 0.01 µM, first compound 3.16 µM) was 35.6% and the viability, T/C (second compound 0.01 µM, first compound 10 µM) was 22.6%. The viability, T/C [5] was 77.7%, the viability, T/C [6] was 57.6% and the viability, T/C [7] was 45.8%. It also gave a viability, T/C [8] of 36.2%, a viability, T/C [9] of 30.5% and a viability, T/C [10] of 32.1%. The viability, T/C [11] was 70%, the viability, T/C [12] was 61.4% and the viability, T/C [13] was 51.5%. The viability, T/C [14] was 35%, the viability, T/C [15] was 35.1% and the viability, T/C [16] was 27.1%. It also gave a viability, T/C [17] of 85.7%, a viability, T/C [18] of 67% and a viability, T/C [19] of 48%. For the same compound, the viability, T/C [20] was 34.2%, the viability, T/C [21] was 35.5% and the viability, T/C [22] was 26.9%. For the same compound, the viability, T/C [23] was 80.6%, the viability, T/C [24] was 64.3% and the viability, T/C [25] was 49.7%. The viability, T/C [26] was 40.2%, the viability, T/C [27] was 31.1% and the viability, T/C [28] was 29.7%.

`CC(=O)OC12COC1CC(O)C1(C)C(=O)C(O)C3=C(C)C(OC(=O)C(O)C(NC(=O)OC(C)(C)C)c4ccccc4)CC(O)(C(OC(=O)c4ccccc4)C21)C3(C)C` (configuration not stated) + C#Cc1c(F)ccc2cc(O)cc(-c3ncc4c(N5CC6CCC(C5)N6)nc(OCC56CCCN5CC(F)C6)nc4c3F)c12 was tested, and the IC50 [1] was under 31.6 nM, the IC50 [2] was under 31.6 nM and the IC50 [3] was under 31.6 nM. For the same compound, the IC50 [4] was under 31.6 nM, the IC50 [29] was under 31.6 nM and the IC50 [30] was under 31.6 nM. It also gave a viability, T/C [5] of 4.52%, a viability, T/C [6] of 3.3% and a viability, T/C [7] of 5.75%. For the same compound, the viability, T/C [8] was 5.44%, the viability, T/C [9] was 6.53% and the viability, T/C [10] was 7.38%. It also gave a viability, T/C [11] of 5.17%, a viability, T/C [12] of 4.75% and a viability, T/C [13] of 5.48%. For the same compound, the viability, T/C [14] was 5.75%, the viability, T/C [15] was 5.28% and the viability, T/C [16] was 6.18%. The viability, T/C [17] was 5.18%, the viability, T/C [18] was 5.95% and the viability, T/C [19] was 5.15%. The viability, T/C [20] was 5.27%, the viability, T/C [21] was 4.44% and the viability, T/C [22] was 8.29%. For the same compound, the viability, T/C [23] was 4.8%, the viability, T/C [24] was 6.07% and the viability, T/C [25] was 7.89%. For the same compound, the viability, T/C [26] was 6.08%, the viability, T/C [27] was 5.69% and the viability, T/C [28] was 8.43%. For the same compound, the viability, T/C [31] was 5.43%, the viability, T/C [32] was 5.83% and the viability, T/C [33] was 5.33%. It also gave a viability, T/C [34] of 4.35%, a viability, T/C (second compound 3.16 µM, first compound 3.16 µM) of 6.83% and a viability, T/C (second compound 3.16 µM, first compound 10 µM) of 8.8%. The viability, T/C [35] was 5.06%, the viability, T/C [36] was 3.91% and the viability, T/C [37] was 6.9%. For the same compound, the viability, T/C [38] was 4.34%, the viability, T/C (second compound 10 µM, first compound 3.16 µM) was 3.89% and the viability, T/C (second compound 10 µM, first compound 10 µM) was 7.89%.

Compound `O=C(c1ccc(F)c(F)c1Nc1ccc(I)cc1F)N1CC(O)([C@@H]2CCCCN2)C1` + C#Cc1c(F)ccc2cc(O)cc(-c3ncc4c(N5CC6CCC(C5)N6)nc(OCC56CCCN5CC(F)C6)nc4c3F)c12 has an IC50 [1] of 287 nM, an IC50 [2] of 231 nM and an IC50 [3] of 230 nM. It also gave an IC50 [4] of 129 nM, an IC50 [29] of 35.2 nM and an IC50 [30] of 6.34 nM. The viability, T/C (second compound 0.0316 µM, first compound 0.00316 µM) was 107%, the viability, T/C (second compound 0.0316 µM, first compound 0.01 µM) was 94.2% and the viability, T/C [5] was 92.5%. The viability, T/C [6] was 84.1%, the viability, T/C [7] was 45.9% and the viability, T/C [8] was 20%. It also gave a viability, T/C (second compound 0.1 µM, first compound 0.00316 µM) of 107%, a viability, T/C (second compound 0.1 µM, first compound 0.01 µM) of 104% and a viability, T/C [11] of 89.5%. The viability, T/C [12] was 74%, the viability, T/C [13] was 39.4% and the viability, T/C [14] was 27.7%. It also gave a viability, T/C (second compound 0.316 µM, first compound 0.00316 µM) of 102%, a viability, T/C (second compound 0.316 µM, first compound 0.01 µM) of 90.7% and a viability, T/C [17] of 89.1%. For the same compound, the viability, T/C [18] was 75.5%, the viability, T/C [19] was 39.6% and the viability, T/C [20] was 22.3%. For the same compound, the viability, T/C (second compound 1 µM, first compound 0.00316 µM) was 96%, the viability, T/C (second compound 1 µM, first compound 0.01 µM) was 95.4% and the viability, T/C [23] was 81.8%. It also gave a viability, T/C [24] of 56.6%, a viability, T/C [25] of 28.9% and a viability, T/C [26] of 19.7%. It also gave a viability, T/C (second compound 3.16 µM, first compound 0.00316 µM) of 81.5%, a viability, T/C (second compound 3.16 µM, first compound 0.01 µM) of 65.7% and a viability, T/C [31] of 53.8%. For the same compound, the viability, T/C [32] was 34.9%, the viability, T/C [33] was 26.4% and the viability, T/C [34] was 18.4%. The viability, T/C (second compound 10 µM, first compound 0.00316 µM) was 56.3%, the viability, T/C (second compound 10 µM, first compound 0.01 µM) was 46.5% and the viability, T/C [35] was 34.5%. The viability, T/C [36] was 26.9%, the viability, T/C [37] was 19.2% and the viability, T/C [38] was 14%.

In the case of `CC1(C)CCC(Nc2ncc(C(F)(F)F)c(-c3c[nH]c4c(P(C)(C)=O)c(C#N)ccc34)n2)CN1` (configuration not stated), the viability, T/C (compound 0.000949 µM) is reported as 107% (2×) and 108% and 102%, the viability, T/C (compound 0.003 µM) is reported as 93.6% [middle of 4 runs] and the viability, T/C (compound 0.00949 µM) is reported as 58.3% [middle of 4 runs]. The viability, T/C (compound 0.0949 µM) was 22.4% [middle of 4 runs], the viability, T/C (compound 0.3 µM) was 19.5% [middle of 4 runs] and the IC50 (curve of compound) was 13.6 nM [middle of 4 runs].
